Paper PMC3726482 (PLoS ONE, 2013)

What was measured:
Format in all cases: biochemical
EF (edema factor) = biological target: T1, EF (edema factor) (Bacillus anthracis, UniProt P40136); settings: read-out: EF / KM
T1 construct: gene cya

CyaA-N [1] = biological target: T2, CyaA-N (Bordetella pertussis, UniProt P0DKX7); settings: read-out: CyaA-N / KM
T2 construct: gene cya; catalytic domain, amino acids 1 to 373; plasmid pExCyaA-N; purified from E. coli; assayed with calf brain calmodulin; with Calmodulin

CyaA-N [2] = biological target: T2, CyaA-N

T1 sequence (P40136 whole entry, looked up): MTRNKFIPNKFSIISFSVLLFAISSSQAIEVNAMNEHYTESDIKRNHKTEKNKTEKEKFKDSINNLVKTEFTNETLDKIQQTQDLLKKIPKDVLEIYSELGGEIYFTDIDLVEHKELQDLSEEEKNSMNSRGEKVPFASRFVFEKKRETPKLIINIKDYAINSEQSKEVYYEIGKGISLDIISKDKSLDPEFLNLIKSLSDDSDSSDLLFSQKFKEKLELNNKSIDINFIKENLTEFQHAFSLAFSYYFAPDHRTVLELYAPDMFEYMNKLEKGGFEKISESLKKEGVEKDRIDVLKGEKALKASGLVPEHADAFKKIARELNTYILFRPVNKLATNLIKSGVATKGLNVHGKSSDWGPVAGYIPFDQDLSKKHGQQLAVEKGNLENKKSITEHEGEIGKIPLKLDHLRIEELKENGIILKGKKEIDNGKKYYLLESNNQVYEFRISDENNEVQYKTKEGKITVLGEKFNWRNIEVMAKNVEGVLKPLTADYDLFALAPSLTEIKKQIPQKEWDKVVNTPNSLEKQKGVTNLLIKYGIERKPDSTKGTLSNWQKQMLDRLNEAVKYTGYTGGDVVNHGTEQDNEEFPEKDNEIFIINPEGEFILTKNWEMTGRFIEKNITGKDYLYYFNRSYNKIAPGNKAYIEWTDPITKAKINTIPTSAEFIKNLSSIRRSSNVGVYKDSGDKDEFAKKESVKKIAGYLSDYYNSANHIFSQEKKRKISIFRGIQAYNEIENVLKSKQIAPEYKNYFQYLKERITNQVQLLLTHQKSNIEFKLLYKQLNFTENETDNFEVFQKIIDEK
T2 sequence (P0DKX7 whole entry, looked up, the tested form may be a part): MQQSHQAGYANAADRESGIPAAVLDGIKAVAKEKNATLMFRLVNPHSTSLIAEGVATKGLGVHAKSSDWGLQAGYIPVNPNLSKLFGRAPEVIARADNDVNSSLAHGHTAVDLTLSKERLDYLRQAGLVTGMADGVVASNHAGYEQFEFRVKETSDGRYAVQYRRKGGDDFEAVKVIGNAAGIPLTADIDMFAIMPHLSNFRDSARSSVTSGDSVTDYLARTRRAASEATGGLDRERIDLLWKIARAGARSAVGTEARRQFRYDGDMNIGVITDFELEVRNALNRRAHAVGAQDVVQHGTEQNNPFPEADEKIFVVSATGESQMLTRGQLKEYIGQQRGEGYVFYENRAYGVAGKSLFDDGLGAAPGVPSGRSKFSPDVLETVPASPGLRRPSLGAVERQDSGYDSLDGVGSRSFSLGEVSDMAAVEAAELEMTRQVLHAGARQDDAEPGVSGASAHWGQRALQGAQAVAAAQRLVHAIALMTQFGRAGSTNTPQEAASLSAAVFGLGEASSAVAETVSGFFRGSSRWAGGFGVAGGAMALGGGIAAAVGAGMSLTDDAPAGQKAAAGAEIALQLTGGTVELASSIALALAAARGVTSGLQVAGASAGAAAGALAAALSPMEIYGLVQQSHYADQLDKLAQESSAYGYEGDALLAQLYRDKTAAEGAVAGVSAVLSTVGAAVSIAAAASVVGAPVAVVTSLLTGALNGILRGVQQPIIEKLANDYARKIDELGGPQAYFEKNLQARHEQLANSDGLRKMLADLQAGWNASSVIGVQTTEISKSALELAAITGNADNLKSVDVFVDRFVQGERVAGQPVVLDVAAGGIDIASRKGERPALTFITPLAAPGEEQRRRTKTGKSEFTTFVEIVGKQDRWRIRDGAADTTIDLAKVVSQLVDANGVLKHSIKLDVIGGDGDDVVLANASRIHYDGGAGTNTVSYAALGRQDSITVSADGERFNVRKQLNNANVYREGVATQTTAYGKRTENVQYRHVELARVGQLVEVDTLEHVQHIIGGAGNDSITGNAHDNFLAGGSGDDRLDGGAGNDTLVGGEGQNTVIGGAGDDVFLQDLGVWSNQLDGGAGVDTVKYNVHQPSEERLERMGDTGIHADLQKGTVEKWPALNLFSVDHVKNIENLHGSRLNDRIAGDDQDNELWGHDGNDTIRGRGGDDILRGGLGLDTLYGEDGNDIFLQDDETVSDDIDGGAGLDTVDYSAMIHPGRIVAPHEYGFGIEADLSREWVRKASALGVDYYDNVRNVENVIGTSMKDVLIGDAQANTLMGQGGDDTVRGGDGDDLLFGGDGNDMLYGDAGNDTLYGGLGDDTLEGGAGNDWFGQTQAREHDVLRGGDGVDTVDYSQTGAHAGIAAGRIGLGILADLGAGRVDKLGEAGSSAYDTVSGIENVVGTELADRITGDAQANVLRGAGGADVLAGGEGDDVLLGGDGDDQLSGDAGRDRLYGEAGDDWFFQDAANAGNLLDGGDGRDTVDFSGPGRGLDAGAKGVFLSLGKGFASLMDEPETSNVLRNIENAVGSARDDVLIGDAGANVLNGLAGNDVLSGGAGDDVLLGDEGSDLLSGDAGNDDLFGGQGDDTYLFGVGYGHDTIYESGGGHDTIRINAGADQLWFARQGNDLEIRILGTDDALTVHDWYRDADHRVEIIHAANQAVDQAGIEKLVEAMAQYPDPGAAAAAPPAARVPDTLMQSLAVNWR

Nc1ncnc2c1ncn2[C@@H]1O[C@H](COP(=O)(O)OP(=O)(O)OP(=O)(O)O)[C@@H](O)[C@H]1O [ATP]
Km (EF (edema factor)): 78.1 ± 8.7 µM | Km (CyaA-N [1]): 171 ± 22.8 µM

Nc1ccn([C@@H]2O[C@H](COP(=O)(O)OP(=O)(O)OP(=O)(O)O)[C@@H](O)[C@H]2O)c(=O)n1 [CTP]
Km (EF (edema factor)): 367 ± 116 µM | Km (CyaA-N [1]): 475 ± 139 µM

Nc1nc2c(ncn2[C@@H]2O[C@H](COP(=O)(O)OP(=O)(O)OP(=O)(O)O)[C@@H](O)[C@H]2O)c(=O)[nH]1 [GTP]
Km (EF (edema factor)): 85 ± 13 µM | Km (CyaA-N [1]): 191 ± 25 µM

O=P(O)(O)OP(=O)(O)OP(=O)(O)OC[C@H]1O[C@@H](n2cnc3c(O)ncnc32)[C@H](O)[C@@H]1O [ITP]
Km (EF (edema factor)): 507 ± 108 µM | Km (CyaA-N [1]): 329 ± 44 µM

Cc1cn([C@H]2C[C@H](O)[C@@H](COP(=O)(O)OP(=O)(O)OP(=O)(O)O)O2)c(=O)[nH]c1=O [TTP]
Km (CyaA-N [1]): 19 ± 5 µM | CyaA-N / KM (CyaA-N [2]): 1332 ± 365 µM

O=c1ccn([C@@H]2O[C@H](COP(=O)(O)OP(=O)(O)OP(=O)(O)O)[C@@H](O)[C@H]2O)c(=O)[nH]1 [UTP]
Km (EF (edema factor)): 792 ± 299 µM | Km (CyaA-N [1]): 599 ± 59 µM

O=c1[nH]c(=O)c2ncn([C@@H]3O[C@H](COP(=O)(O)OP(=O)(O)OP(=O)(O)O)[C@@H](O)[C@H]3O)c2[nH]1 [XTP]
Km (CyaA-N [1]): 37 ± 7 µM | CyaA-N / KM (CyaA-N [2]): 309 ± 57 µM
